Results published in publication PMC11240139, “Exploring the antitumor potential of novel quinoline derivatives via tubulin polymerization inhibition in breast cancer; design, synthesis and molecular docking” (RSC Advances, 2024).

Columns and labels:
Test in all cases: NCI-60 SRB cytotoxicity screen
Format in all cases: cell-based
HCT-116 (colon cancer) = test system: HCT-116 (colon cancer)
U251 (CNS cancer) = test system: U251 (CNS cancer)
T-47D (breast cancer) = test system: T-47D (breast cancer)
HS 578T (breast cancer) = test system: HS 578T (breast cancer)
[1] = test system: NCI/ADR-RES (ovarian cancer)
[2] = test system: NCI-H322M (non-small cell lung cancer)
[3] = test system: MDA-MB-231/ATCC (breast cancer)
M14 (melanoma) = test system: M14 (melanoma)
LOX IMVI (melanoma) = test system: LOX IMVI (melanoma)
UO-31 (renal cancer) = test system: UO-31 (renal cancer)
[4] = test system: NCI-H226 (non-small cell lung cancer)
K-562 (leukemia) = test system: K-562 (leukemia)
HT29 (colon cancer) = test system: HT29 (colon cancer)
SF-268 (CNS cancer) = test system: SF-268 (CNS cancer)
[5] = test system: MDA-MB-468 (breast cancer)
Procedure, shortened: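 NCI-60 single-dose (10^−5 M) screen in MDA-MB-468 with SRB protein-stain read-out after 48 h exposure; cells TCA-fixed and absorbance read at 540 nm. Reported as GI%, with compounds meeting NCI activity criteria then run at five doses (0.01–100 μM).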

[6] = Homo sapiens, HCT-116, five-dose assay
[7] = Homo sapiens, U-251, U251, five-dose assay
[8] = Homo sapiens, single dose 10 μM, read-out: growth inhibition (GI%)
[9] = Homo sapiens, five-dose assay, read-out: LC50 (the source's name)
[10] = Homo sapiens, M14, five-dose assay
[11] = Homo sapiens, UO-31, five-dose assay
[12] = Homo sapiens, NCI-H226, five-dose assay
[13] = Homo sapiens, MDA-MB-468, five-dose assay

CCc1cccc2cc(-c3cc(-c4cc(OC)c(OC)c(OC)c4)[nH]c(=O)c3C#N)c(Cl)nc12 [Compound 4c, 4-(2-Chloro-8-ethylquinolin-3-yl)-2-oxo-6-(3,4,5-trimethoxyphenyl)-1,2-dihydropyridine-3-carbonitrile]
TGI (HCT-116 (colon cancer); HCT-116, five-dose assay): 33.30 µM
GI50 (HCT-116 (colon cancer); [6]): 14.1 µM
LC50 (HCT-116 (colon cancer); [6]): 78.4 µM
inhibition at 10 µM (HCT-116 (colon cancer); Homo sapiens, HCT-116, single dose 10 μM, read-out: growth inhibition (GI%)): 69.1%
GI50 (U251 (CNS cancer); [7]): 10.8 µM
LC50 (concentration killing 50% of cells) (U251 (CNS cancer); [7]): 74.9 µM
inhibition at 10 µM (U251 (CNS cancer); Homo sapiens, U-251, U251, single dose 10 μM, read-out: growth inhibition (GI%)): > 100%
TGI (U251 (CNS cancer); U251, five-dose assay): 28.40 µM
growth inhibition (GI%) (U251 (CNS cancer); U251, single dose 10 μM): lethal effect
GI50 (T-47D (breast cancer); Homo sapiens, T47D, five-dose assay): 12.2 µM
CC50 (T-47D (breast cancer); Homo sapiens, T47D, five-dose assay, read-out: LC50 (the source's name)): > 100 µM
inhibition at 10 µM (T-47D (breast cancer); Homo sapiens, T47D, single dose 10 μM, read-out: growth inhibition (GI%)): 91.6%
TGI (T-47D (breast cancer); five-dose assay): 64.10 µM
GI50 (HS 578T (breast cancer); Homo sapiens, five-dose assay): 2.38 µM
LC50 (50% lethal concentration) (HS 578T (breast cancer); Homo sapiens, five-dose assay): > 100 µM
inhibition at 10 µM (HS 578T (breast cancer); [8]): > 100%
TGI (HS 578T (breast cancer); five-dose assay): 7.26 µM
growth inhibition (GI%) (HS 578T (breast cancer); single dose 10 μM): lethal effect
GI50 ([1]; Homo sapiens, five-dose assay): 44.9 µM
CC50 [1, 9]: > 100 µM
inhibition at 10 µM [1, 8]: 59.9%
TGI ([1]; five-dose assay): >100 µM
GI50 ([2]; Homo sapiens, five-dose assay): 10.5 µM
LC50 (concentration causing 50% net cell kill) ([2]; Homo sapiens, five-dose assay): > 100 µM
inhibition at 10 µM [2, 8]: 53.7%
TGI ([2]; five-dose assay): >100 µM
GI50 ([3]; Homo sapiens, MDA-MB-231): 14.5 µM
inhibition at 10 µM ([3]; Homo sapiens, MDA-MB-231, read-out: growth inhibition (GI%)): > 100%
CC50 ([3]; Homo sapiens, MDA-MB-231/ATCC, five-dose assay, read-out: LC50 (the source's name)): 69.8 µM
TGI ([3]; MDA-MB-231/ATCC, five-dose assay): 31.80 µM
growth inhibition (GI%) ([3]; MDA-MB-231/ATCC, single dose 10 μM): lethal effect
GI50 (M14 (melanoma); [10]): 29.7 µM
LC50 (M14 (melanoma); [10]): > 100 µM
inhibition at 10 µM (M14 (melanoma); Homo sapiens, M14, single dose 10 μM, read-out: growth inhibition (GI%)): 42.8%
TGI (M14 (melanoma); M14, five-dose assay): >100 µM
GI50 (LOX IMVI (melanoma); Homo sapiens, five-dose assay): 13.5 µM
CC50 (LOX IMVI (melanoma); [9]): 81.3 µM
inhibition at 10 µM (LOX IMVI (melanoma); [8]): 91.6%
TGI (LOX IMVI (melanoma); five-dose assay): 33.20 µM
GI50 (UO-31 (renal cancer); [11]): 12.6 µM
LC50 (50% lethal concentration) (UO-31 (renal cancer); [11]): > 100 µM
inhibition at 10 µM (UO-31 (renal cancer); Homo sapiens, UO-31, single dose 10 μM, read-out: growth inhibition (GI%)): > 100%
TGI (UO-31 (renal cancer); UO-31, five-dose assay): >100 µM
growth inhibition (GI%) (UO-31 (renal cancer); UO-31, single dose 10 μM): lethal effect
GI50 [4, 12]: 10.9 µM
LC50 (lethal concentration, 50% cell kill) [4, 12]: 97.7 µM
inhibition at 10 µM ([4]; Homo sapiens, NCI-H226, single dose 10 μM, read-out: growth inhibition (GI%)): > 100%
TGI ([4]; NCI-H226, five-dose assay): 32.60 µM
growth inhibition (GI%) ([4]; NCI-H226, single dose 10 μM): lethal effect
GI50 (K-562 (leukemia); Homo sapiens, K562, K-562, five-dose assay): 7.72 µM
CC50 (K-562 (leukemia); Homo sapiens, K562, K-562, five-dose assay, read-out: LC50 (the source's name)): > 100 µM
inhibition at 10 µM (K-562 (leukemia); Homo sapiens, K-652 [sic], single dose 10 μM, read-out: growth inhibition (GI%)): 31.4%
TGI (K-562 (leukemia); K-562, five-dose assay): 43.80 µM
TGI (HT29 (colon cancer); HT29, five-dose assay): >100 µM
GI50 (HT29 (colon cancer); Homo sapiens, HT-29, HT29, five-dose assay): 32.1 µM
CC50 (HT29 (colon cancer); Homo sapiens, HT-29, HT29, five-dose assay, read-out: LC50 (the source's name)): > 100 µM
inhibition at 10 µM (HT29 (colon cancer); Homo sapiens, HT-29, HT29, single dose 10 μM, read-out: growth inhibition (GI%)): < 10%
GI50 (SF-268 (CNS cancer); Homo sapiens, SF-268, five-dose assay): 13.8 µM
CC50 (SF-268 (CNS cancer); Homo sapiens, SF-268, five-dose assay, read-out: LC50 (the source's name)): > 100 µM
inhibition at 10 µM (SF-268 (CNS cancer); Homo sapiens, SF-268, single dose 10 μM, read-out: growth inhibition (GI%)): 34.4%
TGI (SF-268 (CNS cancer); SF-268, five-dose assay): >100 µM
GI50 [5, 13]: 12.7 µM
LC50 (concentration killing 50% of cells) [5, 13]: > 100 µM
inhibition at 10 µM ([5]; Homo sapiens, MDA-MB-468, single dose 10 μM, read-out: growth inhibition (GI%)): 51.9%
TGI ([5]; MDA-MB-468, five-dose assay): 61.60 µM
